# ± gives the expanded uncertainty stated by the source.
smiles,measurement,setting,value
"O=NN1CN(N=O)CN(N=O)C1 [1,3,5-trinitroso-1,3,5-triazacyclohexane]",Triple point temperature,Crystal 1,380.15 ± 2 K
same,Triple point temperature,Crystal 2,369.25 ± 2 K

# — the NIST ThermoML archive (doi:10.1016/j.tca.2015.07.010)
